Patent US20220324835A1 (Nurix Therapeutics, Inc., priority 2018, published 2022)

Experiments:
Cbl-b (residues 36-427) = Cbl-b (residues 36-427) (Homo sapiens, UniProt Q13191); experiment: Cbl-b binding assay (SPR, Biacore T200); details: 20° C., 1:1 binding model
Procedure: SPR data was collected on a Biacore T200 (GE Healthcare) using a NeutrAvidin (Invitrogen) capture surface that was generated on a polycarboxylate hydrogel sensor chip of medium charge density (XanTec Bioanalytics GmbH) at 20° C. The surface was prepared using 20 mM HEPES, pH 7.5, 100 mM NaCl, 0.5 mM TCEP, 0.01% Triton X-100 as the immobilization buffer. Neutravidin was coupled to the sensor chip through EDC/NHS amine coupling. All steps were performed using a flow rate of 10 μl/min. First, the chip was preconditioned with a 3-min injection of 1 M NaCl, 0.1 M Borate followed by a 10-min equilibration in immobilization buffer. The surface was activated by a 5-min injection of 100 mM EDC/50 mM NHS. Next, 250 μg/mL NeutrAvidin buffered in 10 mM sodium acetate buffer, pH 5.0 was injected over the surface for 2 min. The surface was deactivated with 1 M Tris, pH 8.5 for 7 min then re-equilibrated in immobilization buffer for 7 min. […] Flow cell 1 served as a reference surface and was prepared without protein. All binding measurements were made in 20 mM HEPES, pH 7.5, 100 mM NaCl, 0.5 mM TCEP, 0.01% Triton X-100, 2% DMSO (referred as assay buffer) at 20° C. Compounds, prepared in assay buffer, were diluted from atop concentration of either 100 μM or 50 μM using either a 2- or 3-fold dilution scheme containing 8 or 10 points. Samples were injected for 50 s at 50 μl/min. Dissociation time varied from 90-180 s, depending on anticipated potency. The surface was regenerated by injection of 0.3 M NaCl, prepared in assay buffer for 20 s at 10 μl/min. Positive and negative control samples were run between each compound to monitor surface integrity.
Column marked with an asterisk (*) were tested as described above with assay buffer containing 50 mM NaCl instead of 100 mM NaCl and 30 nM Src kinase instead of 60 nM Src kinase. The resulting data for the Cbl-b binding assay was solvent corrected and double referenced prior to analysis. All data were globally fit to a steady-state affinity and kinetic binding model where applicable). Fit parameters were derived from a 1:1 binding model using the Biacore T200 Evaluation Software V2.0 (GE Healthcare) (Table 2).

Cbl-b [1] = target: T1, Cbl-b (Homo sapiens, UniProt Q13191); experiment: Cbl-b activity assay (Cbl-b inhibition assay), TR-FRET of Cbl-b interaction with UbcH5B-Ub; type: biochemical
T1 sequence (Q13191 36-427): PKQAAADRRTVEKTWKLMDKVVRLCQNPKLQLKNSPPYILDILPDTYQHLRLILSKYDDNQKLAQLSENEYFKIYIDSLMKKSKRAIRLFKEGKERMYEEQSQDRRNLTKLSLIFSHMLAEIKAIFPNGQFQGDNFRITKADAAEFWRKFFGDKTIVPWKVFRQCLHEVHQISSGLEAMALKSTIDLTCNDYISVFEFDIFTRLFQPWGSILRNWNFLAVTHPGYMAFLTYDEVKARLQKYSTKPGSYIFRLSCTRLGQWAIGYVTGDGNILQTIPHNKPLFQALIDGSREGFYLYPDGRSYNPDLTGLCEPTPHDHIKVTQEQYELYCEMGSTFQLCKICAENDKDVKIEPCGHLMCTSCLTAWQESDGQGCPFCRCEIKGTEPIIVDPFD
Method in brief: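 TR-FRET readout of Cbl-b binding to Bodipy-fluorescein N-terminally labeled Ub conjugated to UbcH5B C85K, measured with compound present. After compound incubation, 60 nM Src kinase with 1 mM ATP and 5 mM MgCl2 (final) was added for 1.5 h, then a further 1 h incubation; asterisked values used 50 mM NaCl buffer and 30 nM Src.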

Cbl-b [2] = target: T1, Cbl-b; experiment: Cbl-b inhibition assay (Cbl-b activity assay, FRET, Biological Example 1; 100 mM NaCl, 60 nM Src kinase); type: biochemical; details: upper bound stated in text lists; read-out: IC50 values in the Cbl-b inhibition assay of Biological Example 1
Method in brief: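 FRET read-out: loss of signal marks inhibition. Mix = biotin-Avi-Cbl-b (N-term), Src kinase, UbcH5B-Ub(Bodipy-FL, irreversible conjugate), streptavidin-Tb, assay buffer.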

T-cell [3] = experiment: IL-2 secretion from T-cells co-stimulated with anti-CD3 and anti-CD28 antibody (Biological Example 2); type: cell-based, human; details: Homo sapiens, T-cell, read-out: IL-2 secretion Anti-CD3/Anti-CD28 stimulation; for fold induction at 0.3 µM: 0.3 μM Cbl-b inhibitor; for fold induction at 1 µM: 1 μM Cbl-b inhibitor
Method in brief: (§1)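 No assay protocol given; T-cells stimulated with anti-CD3 alone or anti-CD3 plus anti-CD28, with or without Cbl-b inhibitor. Activation read as IL-2 secretion or CD25 surface staining, expressed as fold over baseline from uninhibited cells […].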

T-cell [4] = experiment: IL-2 secretion from T-cells stimulated with anti-CD3 antibody alone (Biological Example 2); type: cell-based, human; details: T-cell, read-out: IL-2 secretion Anti-CD3 stimulation; for fold induction at 1 µM: 1 μM Cbl-b inhibitor
T-cell [5] = experiment: CD25 cell surface staining on T-cells co-stimulated with anti-CD3 and anti-CD28 antibody (Biological Example 2); type: cell-based, human; details: Homo sapiens, T-cell, read-out: CD25 staining Anti-CD3/Anti-CD28 stimulation; for fold induction at 0.3 µM: 0.3 μM Cbl-b inhibitor; for fold induction at 1 µM: 1 μM Cbl-b inhibitor
Method in brief: as §1

T-cell [6] = experiment: CD25 cell surface staining on T-cells stimulated with anti-CD3 antibody alone (Biological Example 2); type: cell-based, human; details: T-cell, read-out: CD25 staining Anti-CD3 stimulation; for fold induction at 1 µM: 1 μM Cbl-b inhibitor
[7] = assay buffer with 100 mM NaCl, 60 nM Src kinase, read-out: Cbl-b activity IC50
[8] = * assay buffer containing 50 mM NaCl instead of 100 mM NaCl and 30 nM Src kinase instead of 60 nM, read-out: Cbl-b activity IC50 (μM)*
[9] = fold change over baseline, primary human total T-cells
[10] = fold change over baseline, 4 μM Cbl-b inhibitor, primary human total T-cells
[11] = fold change over baseline, 8 μM Cbl-b inhibitor, primary human total T-cells
[12] = fold change over baseline (anti-CD3/anti-CD28 stimulated T-cells without inhibitor)
[13] = Homo sapiens, fold change over baseline (anti-CD3/anti-CD28 stimulated T-cells without inhibitor)

Chain of Cbl-b (residues 36-427) (Q13191 36-427): as above

C[C@H](Sc1nncn1C)c1cccc(NC(=O)c2cc(C(=O)NC[C@@H](C)O)ccn2)c1 [Compound 156, N^4-((R)-2-hydroxypropyl)-N^2-(3-((S)-1-((4-methyl-4H-1,2,4-triazol-3-yl)thio)ethyl)phenyl)pyridine-2,4-dicarboxamide]
Kd (Cbl-b (residues 36-427)): 3 to 10 µM | IC50 (Cbl-b [1]; [7]): 3 to 10 µM | IC50 (Cbl-b [2]): ≤ 10 µM

CC(C)c1cccc(C(=O)Nc2cccc([C@H](C)Sc3nncn3C)c2)c1 [Compound 31, (S)-3-Isopropyl-N-(3-(1-((4-methyl-4H-1,2,4-triazol-3-yl)thio)ethyl)phenyl)benzamide]
Kd (Cbl-b (residues 36-427)): > 10 µM | IC50 (Cbl-b [1]; [8]): 3 to 10 µM

CCC(Sc1nncn1C)c1cccc(NC(=O)c2cc3ccccc3cn2)c1 (stereo not shown) [Compound 137, N-[3-[1-[(4-methyl-1,2,4-triazol-3-yl)sulfanyl]propyl]phenyl]isoquinoline-3-carboxamide]
Kd (Cbl-b (residues 36-427)): 3 to 10 µM | IC50 (Cbl-b [1]; [8]): 3 to 10 µM

CNC(=O)COc1ccc2cnc(C(=O)Nc3cccc([C@@H](C)Sc4nncn4C)c3)cc2c1 [Compound 306b, (R)-N-(3-(1-(4-methyl-4H-1,2,4-triazol-3-ylthio)ethyl)phenyl)-6-(2-(methylamino)-2-oxoethoxy)isoquinoline-3-carboxamide]
Kd (Cbl-b (residues 36-427)): 3 to 10 µM | IC50 (Cbl-b [1]; [7]): 3 to 10 µM

CC(Sc1nncn1C)c1ccc(F)c(NC(=O)c2ccc3ccccc3n2)c1 (stereo not shown) [Compound 96, N-[2-fluoro-5-[1-[(4-methyl-1,2,4-triazol-3-yl)sulfanyl]ethyl]phenyl]quinoline-2-carboxamide]
Kd (Cbl-b (residues 36-427)): > 10 µM | IC50 (Cbl-b [1]; [8]): 3 to 10 µM

CCC(Sc1nncn1C)c1cccc(NC(=O)c2ccc3ccccc3n2)c1 (stereo not shown) [Compound 136, N-[3-[1-[(4-methyl-1,2,4-triazol-3-yl)sulfanyl]propyl]phenyl]quinoline-2-carboxamide]
Kd (Cbl-b (residues 36-427)): 3 to 10 µM | IC50 (Cbl-b [1]; [8]): 3 to 10 µM

CNC(=O)COc1cccc2nc(C(=O)Nc3cccc([C@H](C)Sc4nncn4C)c3)ccc12 [Compound 310, (S)-N-(3-(1-((4-methyl-4H-1,2,4-triazol-3-yl)thio)ethyl)phenyl)-5-(2-(methylamino)-2-oxoethoxy)quinoline-2-carboxamide]
Kd (Cbl-b (residues 36-427)): 0.301 to 1 µM | IC50 (Cbl-b [1]; [7]): 0.301 to 1 µM

C[C@H](Sc1nncn1C)c1cccc(NC(=O)c2ccc3c(OCC(=O)O)cccc3n2)c1 [Compound 309, (S)-2-(2-(3-(1-(4-methyl-4H-1,2,4-triazol-3-ylthio)ethyl)phenylcarbamoyl)quinolin-5-yloxy)acetic acid]
Kd (Cbl-b (residues 36-427)): 3 to 10 µM | IC50 (Cbl-b [1]; [7]): 1 to 3 µM

COCC(Sc1nncn1C)c1cccc(NC(=O)c2cccc(C(F)(F)F)n2)c1 (stereo not shown) [Compound 133, N-[3-[2-methoxy-1-[(4-methyl-1,2,4-triazol-3-yl)sulfanyl]ethyl]phenyl]-6-(trifluoromethyl)pyridine-2-carboxamide]
Kd (Cbl-b (residues 36-427)): 3 to 10 µM | IC50 (Cbl-b [1]; [8]): 3 to 10 µM

C[C@H](Sc1nncn1C)c1cccc(NC(=O)c2cccc(C(F)(F)F)c2)c1 [Compound 29, (S)-N-(3-(1-((4-Methyl-4H-1,2,4-triazol-3-yl)thio)ethyl)phenyl)-3-(trifluoromethyl)benzamide]
Kd (Cbl-b (residues 36-427)): > 10 µM | IC50 (Cbl-b [1]; [8]): 3 to 10 µM

C[C@@H](c1cccc(N2Cc3c(cccc3C(F)(F)F)C2=O)c1)[C@@H](F)c1nncn1C (single isomer, unassigned) [Compound 474a]
Kd (Cbl-b (residues 36-427)): 0.1 to 0.3 µM | IC50 (Cbl-b [1]; [7]): < 0.1 µM

C[C@H](Sc1nncn1C)c1cccc(NC(=O)c2cc3cc(OCC(=O)O)ccc3cn2)c1 [Compound 305, (S)-2-((3-((3-(1-((4-methyl-4H-1,2,4-triazol-3-yl)thio)ethyl)phenyl)-carbamoyl)isoquinolin-6-yl)oxy)acetic acid]
Kd (Cbl-b (residues 36-427)): > 10 µM | IC50 (Cbl-b [1]; [7]): 0.301 to 1 µM

CC(Sc1nncn1C)c1cccc(NC(=O)c2cnc3ccccc3n2)c1 (stereo not shown) [Compound 17, N-(3-(1-((4-Methyl-4H-1,2,4-triazol-3-yl)thio)ethyl)phenyl)quinoxaline-2-carboxamide]
Kd (Cbl-b (residues 36-427)): 3 to 10 µM | IC50 (Cbl-b [1]; [8]): 3 to 10 µM

C[C@H](Cc1nncn1C)c1cc(OCC(F)F)nc(N2Cc3c(cccc3C(F)(F)F)C2=O)c1 [Compound 356, (R)-2-(6-(2,2-difluoroethoxy)-4-(1-(4-methyl-4H-1,2,4-triazol-3-yl)propan-2-yl)pyridin-2-yl)-4-(trifluoromethyl)isoindolin-1-one]
fold induction at 0.3 µM (T-cell [3]; [9]): 2.51 to 5 | fold induction at 1 µM (T-cell [3]; [9]): 2.51 to 5 | fold induction at 4 µM (T-cell [3]; [10]): > 7.5 | fold induction at 1 µM (T-cell [4]; [9]): 0.151 to 0.2 | fold induction at 8 µM (T-cell [4]; [11]): > 0.201 | fold induction at 0.3 µM (T-cell [5]; [9]): 1.01 to 1.3 | fold induction at 1 µM (T-cell [5]; [9]): 1.01 to 1.3 | fold induction at 4 µM (T-cell [5]; [10]): 1.31 to 1.5 | fold induction at 1 µM (T-cell [6]; [9]): 0.801 to 1 | fold induction at 8 µM (T-cell [6]; [11]): > 1 | IC50 (Cbl-b [1]; [7]): < 0.1 µM | IC50 (Cbl-b [2]): ≤ 0.1 µM

C[C@H](Sc1nncn1C)c1cccc(NC(=O)c2cc3ccc(OCC(=O)O)cc3cn2)c1 [Compound 308, (S)-2-((3-((3-(1-((4-methyl-4H-1,2,4-triazol-3-yl)thio)ethyl)phenyl)carbamoyl)isoquinolin-7-yl)oxy)acetic acid]
Kd (Cbl-b (residues 36-427)): 3 to 10 µM | IC50 (Cbl-b [1]; [7]): 1 to 3 µM

CC1C(C(F)(F)F)CCN1Cc1cc2c(c(C(F)(F)F)c1)CN(c1cccc(C3(Cc4nncn4C)COC3)c1)C2=O (stereo not shown) [Example 588, 6-((2-Methyl-3-(trifluoromethyl)pyrrolidin-1-yl)methyl)-2-(3-(3-((4-methyl-4H-1,2,4-triazol-3-yl)methyl)oxetan-3-yl)phenyl)-4-(trifluoromethyl)isoindolin-1-one]
fold induction at 0.3 µM (T-cell [3]; [12]): 5 to 7.5 | fold induction at 1 µM (T-cell [3]; [12]): > 7.5 | fold induction at 1 µM (T-cell [4]; [13]): 0.051 to 0.1 | fold induction at 0.3 µM (T-cell [5]; [12]): 1.01 to 1.3 | fold induction at 1 µM (T-cell [5]; [12]): 1.31 to 1.5 | fold induction at 1 µM (T-cell [6]; [13]): > 1 | IC50 (Cbl-b [1]; [7]): < 0.1 µM | IC50 (Cbl-b [2]): ≤ 0.1 µM
